Measured values reported in PubChem BioAssay (NCI).
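GI50: concentration for 50% inhibition of growth. The concentration for full growth arrest is given as TGI.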

Key:
Test in all cases: growth of human tumour cells (NCI), 384-well format
[1] = tested on: CAKI-1 renal
[2] = tested on: NCI-H226 lung
[3] = tested on: CCRF-CEM leukemia
[4] = tested on: RPMI-8226 leukemia
[5] = tested on: UACC-62 melanoma
[6] = tested on: HOP-92 NSCLC
[7] = tested on: OVCAR-8 ovarian
[8] = tested on: HL-60(TB) leukemia
[9] = tested on: 786-0 renal
[10] = tested on: M14 melanoma
[11] = tested on: TK-10 renal
[12] = tested on: KM12 colon
[13] = tested on: T-47D breast
[14] = tested on: DU-145 prostate
[15] = tested on: NCI/ADR-RES ovarian
[16] = tested on: NCI-H23 lung
[17] = tested on: HOP-62 NSCLC
[18] = tested on: PC-3 prostate
[19] = tested on: BT-549 breast
[20] = tested on: SN12C renal
[21] = tested on: HCT-15 colon
[22] = tested on: MALME-3M melanoma
[23] = tested on: K-562 leukemia
[24] = tested on: A549 NSCLC
[25] = tested on: SK-OV-3 ovarian
[26] = tested on: SK-MEL-5 melanoma
[27] = tested on: NCI-H522 lung
[28] = tested on: RXF 393 renal
[29] = tested on: A498 renal
[30] = tested on: HCC-2998 colon
[31] = tested on: OVCAR-5 ovarian
[32] = tested on: LOX IMVI melanoma
[33] = tested on: HT29 colon
[34] = tested on: SK-MEL-28 melanoma
[35] = tested on: SR leukemia
[36] = tested on: SF-539 CNS
[37] = tested on: SF-268 CNS
[38] = tested on: SW-620 colon
[39] = tested on: OVCAR-3 ovarian
[40] = tested on: NCI-H322M lung
[41] = tested on: MDA-MB-435 melanoma
[42] = tested on: SNB-75 CNS
[43] = tested on: SNB-19 CNS
[44] = tested on: NCI-H460 NSCLC
[45] = tested on: HS 578T breast
[46] = tested on: UO-31 renal
[47] = tested on: MCF7 breast
[48] = tested on: COLO 205 colon
[49] = tested on: MOLT-4 leukemia
[50] = tested on: UACC-257 melanoma
[51] = tested on: EKVX NSCLC
[52] = tested on: OVCAR-4 ovarian
[53] = tested on: MDA-MB-468 breast
[54] = tested on: IGROV1 ovarian
[55] = tested on: ACHN renal
[56] = tested on: SF-295 CNS
[57] = tested on: MDA-MB-231 breast

Cn1ncc(-c2ccc3c(=O)[nH]nc(CN)c3c2)c1-c1c(F)cc2ccccc2c1C#N
GI50 [1]: 3.23 µM | TGI [1]: 13.9 µM | GI50 [2]: 3.4 µM | TGI [2]: 15.1 µM | GI50 [3]: 1.15 µM | TGI [3]: 3.04 µM | GI50 [4]: 1.45 µM | TGI [4]: 3.02 µM | GI50 [5]: 2.97 µM | TGI [5]: 14.2 µM | GI50 [6]: 1.18 µM | TGI [6]: 6.91 µM | GI50 [7]: 2.59 µM | TGI [7]: 15.2 µM | GI50 [8]: 1.72 µM | TGI [8]: 3.29 µM | GI50 [9]: 2.13 µM | TGI [9]: 12.6 µM | GI50 [10]: 2.83 µM | TGI [10]: 8.76 µM | GI50 [11]: 8.98 µM | TGI [11]: 21.2 µM | GI50 [12]: 2.63 µM | TGI [12]: 11.3 µM | GI50 [13]: 1.08 µM | TGI [13]: 6.19 µM | GI50 [14]: 3.87 µM | TGI [14]: 14.9 µM | GI50 [15]: 5.21 µM | TGI [15]: 25.1 µM | GI50 [16]: 2.19 µM | TGI [16]: 7.34 µM | GI50 [17]: 2.41 µM | TGI [17]: 13 µM | GI50 [18]: 3.96 µM | TGI [18]: 14.7 µM | GI50 [19]: 2.9 µM | TGI [19]: 11 µM | GI50 [20]: 2.17 µM | TGI [20]: 9.35 µM | GI50 [21]: 2.28 µM | TGI [21]: 10.8 µM | GI50 [22]: 1.59 µM | TGI [22]: 5.5 µM | GI50 [23]: 2.11 µM | TGI [23]: 8.63 µM | GI50 [24]: 2.8 µM | TGI [24]: 14 µM | GI50 [25]: 4.57 µM | TGI [25]: 16.6 µM | GI50 [26]: 1.18 µM | TGI [26]: 3.27 µM | GI50 [27]: 2.37 µM | TGI [27]: 6.27 µM | GI50 [28]: 1.69 µM | TGI [28]: 8.25 µM | GI50 [29]: 2.22 µM | TGI [29]: 11 µM | GI50 [30]: 3.08 µM | TGI [30]: 14 µM | GI50 [31]: 4.58 µM | TGI [31]: 17.1 µM | GI50 [32]: 2.73 µM | TGI [32]: 11.1 µM | GI50 [33]: 2.64 µM | TGI [33]: 11.8 µM | GI50 [34]: 3.09 µM | TGI [34]: 12.6 µM | GI50 [35]: 0.0374 µM | TGI [35]: 0.313 µM | GI50 [36]: 1.84 µM | TGI [36]: 5.38 µM | GI50 [37]: 2.4 µM | TGI [37]: 12 µM | GI50 [38]: 2.54 µM | TGI [38]: 11.5 µM | GI50 [39]: 1.77 µM | TGI [39]: 5.25 µM | GI50 [40]: 4.74 µM | TGI [40]: 18.3 µM | GI50 [41]: 2.08 µM | TGI [41]: 4.61 µM | GI50 [42]: 2.55 µM | TGI [42]: 10.3 µM | GI50 [43]: 4.87 µM | TGI [43]: 18.8 µM | GI50 [44]: 1.27 µM | TGI [44]: 11.5 µM | GI50 [45]: 1.76 µM | TGI [45]: 4.22 µM | GI50 [46]: 6.43 µM | TGI [46]: 19.6 µM | GI50 [47]: 1.11 µM | TGI [47]: 9.34 µM | GI50 [48]: 2.9 µM | TGI [48]: 15.3 µM | GI50 [49]: 0.0298 µM | TGI [49]: 0.101 µM | GI50 [50]: 2.64 µM | TGI [50]: 8.43 µM | GI50 [51]: 5.14 µM | TGI [51]: 18.7 µM | GI50 [52]: 1.3 µM | TGI [52]: 7.5 µM | GI50 [53]: 1.31 µM | TGI [53]: 3.44 µM | GI50 [54]: 3.42 µM | TGI [54]: 14 µM | GI50 [55]: 2.3 µM | TGI [55]: 11.2 µM | GI50 [56]: 4.96 µM | TGI [56]: 17.2 µM | GI50 [57]: 2.1 µM | TGI [57]: 14.4 µM
